Patent US6897206B2, “Combinations for the treatment of inflammatory disorders” (CombinatoRx, Inc., priority 2001, dated 2005)

What was measured:
TNFα secretion [1] = assay: cells; details: Homo sapiens, read-out: TNFα inhibition
Experimental: (§1) The compound dilution matrix was assayed using a TNFα ELISA method. Briefly, a 100 μl suspension of diluted human peripheral blood mononuclear cells (PBMCs) contained within each well of a polystyrene 384-well plate (NalgeNunc) was stimulated to secrete TNFα by treatment with a final concentration of 10 ng/ml phorbol 12-myristate 13-acetate (Sigma) and 750 ng/μl ionomycin (Sigma). Various concentrations of each test compound were added at the time of stimulation. After 16-18 hours of incubation at 37° C. in a humidified incubator, the plate was centrifuged and the supernatant transferred to a white opaque polystyrene 384 well plate (NalgeNunc, Maxisorb) coated with an anti-TNF antibody (PharMingen, #18631 D). After a two-hour incubation, the plate was washed (Tecan PowerWasher 384) with phosphate buffered saline (PBS) containing 0.1% Tween 20 (polyoxyethylene sorbitan monolaurate) and incubated for an additional one hour with another anti-TNF antibody that was biotin labeled (PharMingen, 18642D) and horseradish peroxidase (HRP) coupled to strepavidin (PharMingen, #13047E). After the plate was washed with 0.1% Tween 20/PBS, the HRP substrate (which contains luminol, hydrogen peroxide, and an enhancer such as para-iodophenol) was added to each well and light intensity measured using a LJL Analyst luminometer. Control wells contained a final concentration of 1 μg/ml cyclosporin A (Sigma).

TNFα secretion [2] = assay: TNFα ELISA; suppression of TNFα secretion from phorbol 12-myristate 13-acetate and ionomycin stimulated PBMCs/blood; details: Homo sapiens, PBMC; for inhibition at 0.05 µM: amoxapine 0.050 μM alone (prednisolone 0.000 μM); for inhibition at 0.199 µM: amoxapine 0.199 μM alone (prednisolone 0.000 μM); for inhibition at 0.797 µM: amoxapine 0.797 μM alone (prednisolone 0.000 μM); for inhibition at 0.004 µM: prednisolone 0.004 μM alone (amoxapine 0.000 μM); for inhibition at 0.017 µM: prednisolone 0.017 μM alone (amoxapine 0.000 μM); for inhibition at 0.069 µM: prednisolone 0.069 μM alone (amoxapine 0.000 μM); for inhibition at 0.277 µM: prednisolone 0.277 μM alone (amoxapine 0.000 μM)
Experimental: Stock solutions of amoxapine (16 mg/ml) (Sigma-Aldrich, St. Louis, Mo.; catalog number A129) and prednisolone (1.6 mg/ml) (Sigma-Aldrich, catalog number P6004) were made in dimethylsulfoxide (DMSO). The amoxapine master plates were made by adding 25 μl of the concentrated stock solution to columns 3, 9, and 15 (rows C through N) of a polypropylene 384-well storage plate that had been pre-filled with 75 μl of anhydrous DMSO. Using a TomTec Quadra Plus liquid handler, the 25 μl of amoxapine stock solution was serially diluted two-fold four times into the adjacent columns (columns 4-7, 10-13, 16-19). […] The prednisolone master plates were made by adding 25 μl of the concentrated prednisolone stock solution to the appropriate wells (row C, columns 3-8; row C, columns 9-14; row C, columns 15-20; row I, columns 3-8; row I, columns 9-14; row I, columns 15-20) of the appropriate prednisolone master polypropylene 384-well storage plate. These master plates had been pre-filled with 75 μl of anhydrous DMSO. Using the TomTec Quadra Plus liquid handler, the 25 μl was serially diluted two-fold four times in the adjacent rows (rows D-G, and J-M). […] Master plates were sealed and stored at −20 C until ready for use.
The final amoxapine/prednisolone combination plate was generated by transferring 1 μl from each of the amoxapine and prednisolone master plates to a dilution plate containing 100 μl of media (RPMI; Gibco BRL, #11875-085), 10% Fetal Bovine Serum (Gibco BRL, #25140-097), 2% Penicillin/Streptomycin (Gibco BRL, #15140-122)) using the TomTec Quadra Plus liquid handler. This dilution plate was then mixed and a 10 μl aliquot transferred to the final assay plate, which had been pre-filled with 40 μl/well RPMI media containing the appropriate stimulant to activate TNFα secretion (see below).
as §1

[3] = read-out: TNFα inhibition, Table 1
[4] = read-out: TNFα inhibition, Table 2

Compound `Clc1ccc2c(c1)C(N1CCNCC1)=Nc1ccccc1O2` [Amoxapine, 2-cloro-11(1-piperazinyl)dibenz[b,f][1,4]oxapine] has an inhibition at 0.05 µM (TNFα secretion [1]) of 3%, an inhibition at 0.1 µM (TNFα secretion [1]) of 5.52% and an inhibition at 0.199 µM (TNFα secretion [1]) of 2.39%. The inhibition at 0.398 µM (TNFα secretion [1]) was 8.1%, the inhibition at 0.797 µM (TNFα secretion [1]) was 13.1% and the inhibition at 1.593 µM (TNFα secretion [1]) was 16.8%. It also gave an inhibition at 3.187 µM (TNFα secretion [1]) of 24.2%, an inhibition at 6.373 µM (TNFα secretion [1]) of 21.3% and an inhibition at 12.747 µM (TNFα secretion [1]) of 49.6%. For the same compound, the inhibition at 0.4 µM (TNFα secretion [2]; read-out: TNFα inhibition activity, follow-up secondary screen, amoxapine alone at 400 nM) was 16%, the inhibition at 0.05 µM (TNFα secretion [2]; [3]) was 7.3% and the inhibition at 0.199 µM (TNFα secretion [2]; [3]) was 16.7%. The inhibition at 0.797 µM (TNFα secretion [2]; [3]) was 24.3%, the inhibition at 3.188 µM (TNFα secretion [2]; read-out: TNFα inhibition, Table 1, amoxapine 3.188 μM alone (prednisolone 0.000 μM)) was 50.4% and the inhibition at 12.75 µM (TNFα secretion [2]; read-out: TNFα inhibition, Table 1, amoxapine 12.750 μM alone (prednisolone 0.000 μM)) was 73%. For the same compound, the inhibition at 0.05 µM (TNFα secretion [2]; [4]) was -3.31%, the inhibition at 0.1 µM (TNFα secretion [2]; read-out: TNFα inhibition, Table 2, amoxapine 0.100 μM alone (prednisolone 0.000 μM)) was 3.6% and the inhibition at 0.199 µM (TNFα secretion [2]; [4]) was 14.2%. It also gave an inhibition at 0.398 µM (TNFα secretion [2]; read-out: TNFα inhibition, Table 2, amoxapine 0.398 μM alone (prednisolone 0.000 μM)) of 16.4%, an inhibition at 0.797 µM (TNFα secretion [2]; [4]) of 21.9% and an inhibition at 1.593 µM (TNFα secretion [2]; read-out: TNFα inhibition, Table 2, amoxapine 1.593 μM alone (prednisolone 0.000 μM)) of 37.1%. It also gave an inhibition at 3.187 µM (TNFα secretion [2]; read-out: TNFα inhibition, Table 2, amoxapine 3.187 μM alone (prednisolone 0.000 μM)) of 48%, an inhibition at 6.373 µM (TNFα secretion [2]; read-out: TNFα inhibition, Table 2, amoxapine 6.373 μM alone (prednisolone 0.000 μM)) of 64.4% and an inhibition at 12.747 µM (TNFα secretion [2]; read-out: TNFα inhibition, Table 2, amoxapine 12.747 μM alone (prednisolone 0.000 μM)) of 80.9%.

In the case of `C[C@]12C=CC(=O)C=C1CC[C@@H]1[C@@H]2[C@@H](O)C[C@@]2(C)[C@H]1CC[C@]2(O)C(=O)CO` [Prednisolone, 1,4-pregnadiene-11beta, 17alpha,21-triol-3,20-dione], the inhibition at 0.004 µM (TNFα secretion [1]) is reported as 12.1%, the inhibition at 0.009 µM (TNFα secretion [1]) is reported as 30.2% and the inhibition at 0.017 µM (TNFα secretion [1]) is reported as 37.1%. The inhibition at 0.035 µM (TNFα secretion [1]) was 33.1%, the inhibition at 0.069 µM (TNFα secretion [1]) was 38.8% and the inhibition at 0.139 µM (TNFα secretion [1]) was 48.5%. The inhibition at 0.277 µM (TNFα secretion [1]) was 48.8%, the inhibition at 1.11 µM (TNFα secretion [1]) was 60.1% and the inhibition at 0.009 µM (TNFα secretion [2]; read-out: TNFα inhibition activity, follow-up secondary screen, prednisolone alone at 9 nM) was 14%. It also gave an inhibition at 0.004 µM (TNFα secretion [2]; [3]) of 2.69%, an inhibition at 0.017 µM (TNFα secretion [2]; [3]) of 19.1% and an inhibition at 0.069 µM (TNFα secretion [2]; [3]) of 22.3%. It also gave an inhibition at 0.277 µM (TNFα secretion [2]; [3]) of 26.8%, an inhibition at 1.11 µM (TNFα secretion [2]; read-out: TNFα inhibition, Table 1, prednisolone 1.110 μM alone (amoxapine 0.000 μM)) of 27.6% and an inhibition at 0.004 µM (TNFα secretion [2]; [4]) of 9.62%. It also gave an inhibition at 0.009 µM (TNFα secretion [2]; read-out: TNFα inhibition, Table 2, prednisolone 0.009 μM alone (amoxapine 0.000 μM)) of 14.3%, an inhibition at 0.017 µM (TNFα secretion [2]; [4]) of 24.7% and an inhibition at 0.035 µM (TNFα secretion [2]; read-out: TNFα inhibition, Table 2, prednisolone 0.035 μM alone (amoxapine 0.000 μM)) of 24.1%. It also gave an inhibition at 0.069 µM (TNFα secretion [2]; [4]) of 24.6%, an inhibition at 0.139 µM (TNFα secretion [2]; read-out: TNFα inhibition, Table 2, prednisolone 0.139 μM alone (amoxapine 0.000 μM)) of 25.7% and an inhibition at 0.277 µM (TNFα secretion [2]; [4]) of 36.9%. For the same compound, the inhibition at 1.11 µM (TNFα secretion [2]; read-out: TNFα inhibition, Table 2, prednisolone 1.110 μM alone (amoxapine 0.000 μM)) was 34.6%, the inhibition at 1.11 µM (TNFα secretion [2]; read-out: TNFα inhibition, follow-up secondary screen, 1110 nM prednisolone alone) was 35% and the inhibition at 1.11 µM (TNFα secretion [2]; read-out: inhibit TNFα secretion, prednisolone alone at 1.11 μM) was 28%.
